One may read the mortality as the percentage killed.

Among the data in patent publication US4792563A, “Insecticidal ethers” (Imperial Chemical Industries PLC, priority 1986, dated 1988) are mortality and pest or weed control values, retold here.

Common to all, as to format: in vivo
For test [1], the system named is Myzus persicae (aphids). Put plainly: insecticidal mortality test, contact, Chinese cabbage leaf. The conditions noted are these: 72 h, 3 days, read-out: grading of mortality, MP. The procedure: (§1) The activity of the Product was determined using variety of insect pests. The Product was used in the form of liquid preparations containing 500 , 100 or 10 parts per million (ppm) by weight of the Product. The preparations were made by dissolving the Product in acetone and diluting the solutions with water containing b 0.01% by weight of a wetting agent sold under the trade name "LISSAPOL" NX until the liquid preparations contained the required concentration of the Product. "Lissapol" is a Registered Trade Mark.
(§2) The test procedure adopted with regard to each pest was basically the same and comprised supporting a number of the pests on a medium which was usually a host plant or a foodstuff on which the pests feed, and treating either or both the pests and the medium with the preparations. The mortality of the pests was then assessed at peroods usually varying from one to three days after the treatment.
(§3) The results of the tests are given in Table IV for each of the Products, at the rate in parts per million given in the second column, as a grading of mortality designated as A, B or C wherein A indicates 80-100% mortality or knockdown, B indicates 50-79% mortality or knockdown and C indicates less than 50% mortality or knockdown.
(§4) In Table IV the pest organism used is designated by a letter code and the pest species, the support medium or food, and the type and duration of test is given in Table III.

The subject of test [2] is Musca domestica (houseflies - adults). Put plainly: knockdown test, cotton wool/sugar. The conditions noted are these: 4 hours, read-out: grading of knockdown, MD/KD. The procedure: as §1, §2
In the case of the species Musca domestica (housefly), additional tests to determine the knockdown effect of the compounds were performed.
as §3, §4

Test [3] concerns Nephotettix cincticeps (green leaf hopper - nymphs). As to the kind of experiment: insecticidal mortality test, contact, rice plant. The conditions noted are these: 72 h, 3 days, read-out: grading of mortality, NC. As for the experimental part: as §1, §2, §3, §4
NC Nephotettix cincticeps

The subject of test [4] is Spodoptera exigua (lesser army worm - larvae). As to the kind of experiment: insecticidal mortality test, residual, cotton leaf. The conditions noted are these: 72 h, 3 days, read-out: grading of mortality, SP. As for the experimental part:
as §1, §2, §3, §4
(lesser army worm - larvae)

For test [5], the system named is Heliothis virescens (tobacco budworm - larvae). Put plainly: whole plant or invertebrate. The conditions noted are these: in Gossypium hirsutum, 72 h, read-out: grading of mortality, HV. As for the experimental part:
as §1, §2, §3, §4
(tobacco budworm - larvae)

The subject of test [6] is Tetranychus urticae (spider mites - adult). As to the kind of experiment: insecticidal mortality test, contact, French bean leaf. The conditions noted are these: 72 h, 3 days, read-out: grading of mortality, TU. As for the experimental part:
as §1, §2, §3, §4

Test [7] has as its system Musca domestica (houseflies - adults). As to the kind of experiment: insecticidal mortality test, contact, cotton wool/sugar. The conditions noted are these: 24 h, 1 day, read-out: grading of mortality, MD. As for the experimental part:
as §1, §2, §3, §4

In test [8] the test system is Diabrotica balteata (rootworm larvae). Put plainly: insecticidal mortality test, residual, filter paper/maize seed. The conditions noted are these: 72 h, 3 days, read-out: grading of mortality, DB. As for the experimental part:
as §1, §2, §3, §4

In test [9] the test system is Blattella germanica (cockroach nymphs). Put plainly: insecticidal mortality test, residual, plastic pot. The conditions noted are these: 72 h, 3 days, read-out: grading of mortality, BG. As for the experimental part:
as §1, §2, §3, §4

In test [10] the test system is Niloparvata lugens (brown plant hopper - nymphs). Put plainly: insecticidal mortality test, contact, rice plant. The conditions noted are these: 72 h, 3 days, read-out: grading of mortality, NL. The procedure: as §1, §2
The results of the tests are given in Table IV for each of the Products, at the rate in parts per million given in the second column, as a grading of mortality designated as A, B or C wherein A indicates 80-100% mortality or knockdown, B indicates 50-79% mortality or knockdown and C indicates less than 50% mortality or knockdown. […]

`Fc1ccc(COCC2(C(F)F)CCCC2)cc1Oc1ccccc1` [Compound 21, 1-Difluoromethyl-l-(4-fluoro-3-phenoxybenzyloxymethyl)cyclopentane]: the mortality at 500 ppm in test [1] is under 50%; in test [3], 80 to 100%; in test [4] it was under 50%; in test [5], 50 to 79%; in test [6], under 50%; in [7] it was under 50%. Besides, the mortality at 500 ppm in [8] lay within 80 to 100%. For the same compound, the pest or weed control at 500 ppm in test [2] was under 50%.

Consider `CC(C)(CF)COCc1cccc(Oc2ccccc2)c1` [Compound 8, 1-fluoro-2,2-dimethyl-3-(3-phenoxybenzyloxy)propane], for which the mortality at 500 ppm is under 50% in test [9]; under 50% in test [1]; 80 to 100% in test [3]; 80 to 100% in [4]; 50 to 79% in test [5]; under 50% in test [6]. For the same compound, the mortality at 500 ppm was 50 to 79% in test [7] and 80 to 100% in test [8]. The pest or weed control at 500 ppm in test [2] is under 50%.

For `CC(C)(COCc1ccc(F)c(Oc2ccccc2)c1)C(F)F` [Compound 1, 1,1-difluoro-2,2-dimethyl-3-(4-fluoro-3-phenoxybenzyloxy)propane], the mortality at 500 ppm in [9] was 80 to 100%; in test [1], under 50%; in test [10], 80 to 100%; in test [4], 80 to 100%; in test [5], 80 to 100%; in test [6] it was under 50%. Besides, the mortality at 500 ppm in test [7] and in [8] was 80 to 100% in each case. For the same compound, the pest or weed control at 500 ppm in [2] was 80 to 100%.

On to `CC(C)(CF)COCc1ccc(F)c(Oc2ccccc2)c1` [Compound 7, 1-Fluoro-2,2-dimethyl-3-(4-fluoro-3-phenoxybenzyloxy)propane], for which the mortality at 500 ppm in [9] was 80 to 100%; in [1], under 50%; in test [3] it was 80 to 100%; in test [4], 80 to 100%; in test [5], 80 to 100%; in [6], under 50%. Moreover, the mortality at 500 ppm in test [7] and in test [8] was 80 to 100% each time. Moreover, in test [2], the pest or weed control at 500 ppm lay within 80 to 100%.

For the compound `CC(C)(COCc1ccc(F)c(Nc2ccccc2)c1)C(F)F` [Compound 6, 1,1-Difluoro-2,2-dimethyl-3-(3-phenylamino-4-fluorobenzyloxy)propane], the mortality at 500 ppm in test [1] was 80 to 100%; in test [3] it was 80 to 100%; in test [4], 80 to 100%; in [5] it was 80 to 100%; in test [6] it was 80 to 100%; in test [7], under 50%. In [8], the mortality at 500 ppm was 80 to 100%. In test [2], the pest or weed control at 500 ppm fell in the range of 50 to 79%.

For `CC(C)(COCc1cccc(Oc2ccccc2)n1)C(F)F` [Compound 5, 1,1-Difluoro-2,2-dimethyl-3-[(6-phenoxypyrid-2-yl)methyloxy]propane], the mortality at 500 ppm in [9] is 80 to 100%; in test [1], 50 to 79%; in [10], 80 to 100%; in test [4] it was 80 to 100%; in test [5], under 50%; in test [6] it was 80 to 100%. In addition, the mortality at 500 ppm in test [7] and in [8] was 80 to 100% each time. Besides, the pest or weed control at 500 ppm in test [2] lay in the range of 80 to 100%.

Consider `CCC(C)(COCc1cccc(Oc2ccccc2)c1)C(F)F` (racemic) [Compound 3, (RS)-1,1-Difluoro-2-ethyl-2-methyl-3(3-phenoxybenzyloxy)propane], for which the mortality at 500 ppm in test [9] is under 50%; in [1] it was under 50%; in [3], under 50%; in test [4], 80 to 100%; in [5], under 50%; in test [6], under 50%. Besides, the values for the mortality at 500 ppm in [7] and in [8] were 50 to 79% and 80 to 100%, respectively. For the same compound, the pest or weed control at 500 ppm in test [2] lay within 50 to 79%.

`CC(C)(COCc1cccc(Oc2ccccc2)c1)C(F)F` [Compound 2, 1,1-Difluoro-2,2-dimethyl-3-(3-phenoxybenzyloxy)propane]: the mortality at 500 ppm in test [9] was 80 to 100%; in test [1] it was under 50%; in test [3], 80 to 100%; in [4] it was under 50%; in test [5], under 50%; in test [6], under 50%. The mortality at 500 ppm in test [7] and in test [8] was 80 to 100% throughout. In [2], the pest or weed control at 500 ppm was 80 to 100%.

Take `CC(C)(COCc1ccc(F)c(Cc2ccccc2)c1)C(F)F` [Compound 4, 1,1-Difluoro-2,2-dimethyl-3-(4-fluoro-3-benzylbenzyloxy)propane]: the mortality at 500 ppm in [9] was 50 to 79%; in test [1], under 50%; in test [4], 50 to 79%; in [5], under 50%; in test [6] it was under 50%; in test [7], 80 to 100%. Moreover, the mortality at 500 ppm in test [8] lay within 80 to 100%. The pest or weed control at 500 ppm in test [2] is under 50%.
